Assay results as given in patent US12264185B2, “Stabilized BCL9 peptides for treatment of aberrant Wnt signaling” (WntRx Pharmaceuticals Inc., priority 2015, dated 2025).
Values joined by “and” are separate entries in the source; they are usually repeats but may differ in a detail not shown here. Identical values can stand only once. Like-named read-outs stand apart in the source and are kept apart here.

Experiments:
Wnt/β-catenin signaling = test: GeneBLAzer beta-lactamase Wnt transcription reporter assay, LEF/TCF-bla HCT-116 cells; assay type: cell-based
Excerpt: ICG001 was used as a comparison. The GeneBLAzer uses CellSensor™ LEF/TCF-bla HCT-116 cells that contain a beta-lactamase (BLA) reporter gene under the control of the β-catenin/LEF/TCF response element stably integrated into HCT-116 cells, as shown in FIG. 5A. These cells constitutively express beta-lactamase and can be used to detect agonists and antagonists of the Wnt/β-catenin signaling pathway. The GeneBLAzer assay provides a ratiometric reporter response involving a two-color (blue/green) readout of stimulated and unstimulated cells.
LEF/TCF-bla HCT-116 cells were plated in assay medium (Invitrogen) on clear-bottom plates and incubated overnight at 37° C. […] Cells were next incubated with the Wnt agonist, mWnt3a (provided in the GeneBLAzer kit) for 5 hours at 37° C. Substrate mixture (containing LiveBLAzer™ B/G substrate that employs CCF4-AM, a FRET substrate for beta-lactamase) was added to the wells, and the plate was incubated for 2.5 hours at room temperature in the dark. Black-walled, clear-bottom, 384-well plates (Corning Costar) were used with scanning done with a Spectramax M2. Plates were scanned first (Scan 1 in the blue channel) with excitation filter 409/20 nm and emission filter 460/40 nm. Plates were then scanned (Scan 2 in the green channel) with excitation filer 409/20 nm and emission filter 530/30 nm.

HCT116 cells = assay type: cell-based
Procedure: The additional polypeptides were tested in a CellTiterGlo luminescent cell viability assay (Promega). ICG001 was used as a positive control in this assay.

PI3K/AKT/FOXO = PI3K/AKT/FOXO transcription assay (TREx FOXO3-DBE-bla HeLa cell line); assay type: cell-based
Excerpt: In these assays, the trifluoroacetic salt form of WX-024 was used.

CT26 cells = test: CT26 syngeneic mouse model of colon cancer (Balb/c); assay type: in vivo, mice
Procedure: The syngeneic mouse model of colon cancer using CT26 was then assessed. Male Balb/c mice were injected subcutaneously in the right flank with 5×10^4 CT26 cells each at approximately 5 weeks of age. […] Eight mice were included in each treatment group.
The whole blood was taken from each mouse. Lymphocytes were purified from the blood samples by Ficoll, and the cells were stained with fluorescent anti-CD4 antibody. Data were measured by flow cytometry.
As described above, the whole blood was taken from each mouse. Lymphocytes were purified from blood by Ficoll, and the cells were stained with fluorescent anti-CD8 antibody. Data were measured by flow cytometry.
To further assess whether WX-024 is capable of modulating a tumor microenvironment, tumor and blood samples were collected in anticoagulation tubes at the end of the study. Single cells separation was performed and then cells were stained for FACS analysis. For cell surface staining, CD45-PerCP-Cy5, CD4-FITC, CD8-PE-Cy7, and CD25-PE were used. For intranuclear staining, cells were permeabilized overnight and then stained with Foxp3-APC for 60 minutes.
The in vivo efficacy of WX-035 in treating a cancer was assessed in a syngeneic mouse model, following the procedures described in Example 5.3. Trametinib, a known MEK inhibitor, was used as a comparison. Briefly, balb/c mice were inoculated with CT26 and treatment started when tumor volume reached to about 100 mm^3. The mice were then divided into three groups and began administered with a vehicle, 40 mg/kg WX-035, or 1 mg/kg trametinib for 7 consecutive days.
At the end of the study described in Example 9.2, a tumor sample from each mouse was collected to assess the effect of WX-035 in modulating T cell activation. The FACS analysis of each tumor sample was performed following the procedure described in Example 5. A shown in FIG. 36A, treatment with WX-035 reduced the total amount of CD45^+ cells. […] Likewise, Foxp3^+ CD25^+ T cells were reduced by WX-035 treatment (FIG. 36C). […] Furthermore, by increasing the ratio of cytotoxic T cells over regulatory T cells, WX-035 may induce a microenvironment that favors an immune reaction beneficial for tumor treatment. Of note, the samples collected from this experiment were also assessed for LGR5 expression.

[1] = Preclinical summary of multiple animal models; assay type: in vivo
Excerpt: The in vivo efficacy of WX-024 was confirmed in multiple animal models.

[2] = 20 mg/kg, after 2 weeks of daily dosing

CC[C@H](C)[C@@H]1NC(=O)[C@@](C)(NC(=O)[C@H](CCCNC(=N)N)NC(=O)[C@H](CC(C)C)NC(=O)[C@@H](NC(=O)[C@H](CCC(N)=O)NC(=O)[C@H](CC(C)C)NC(C)=O)[C@@H](C)O)CCCC=CCCC[C@@](C)(C(=O)N[C@@H](CC(C)C)C(=O)N[C@@H](Cc2ccc3ccccc3c2)C(N)=O)NC(=O)[C@H](CCCNC(=N)N)NC(=O)[C@H](CCC(N)=O)NC1=O [WX-024, LQTLRXaa1IQRXaa2L]
IC50 (Wnt/β-catenin signaling; LEF/TCF-bla HCT-116 cells, read-out: IC50, Wnt transcription): 191 nM and ~200 nM | IC50 (Wnt/β-catenin signaling; acetate salt form, read-out: IC50, Wnt transcription inhibition): 292 nM | IC50 (Wnt/β-catenin signaling; hydrochloric salt, read-out: IC50, Wnt transcription inhibition): 313 nM | IC50 (HCT116 cells): 1920 nM | inhibition of cell growth (HCT116 cells; HCT116 cells, CellTiterGlo): particularly effective | IC50 (PI3K/AKT/FOXO; Example 4.5, read-out: IC50, PI3K/AKT/FOXO transcription assay): > 10000 nM | IC50 (PI3K/AKT/FOXO; TREx FOXO3-DBE-bla HeLa, Insulin stimulation, trifluoroacetic salt form, read-out: IC50 (nM), PI3K/AKT/FOXO3 pathway): > 1000 nM | IC50 (PI3K/AKT/FOXO; summary, Example 6, read-out: IC50, PI3K/AKT/FOXO3 reporter assay): > 100 nM | tumor volume over time compared to vehicle (CT26 cells; 20 mg/kg i.p. daily, 14 days): substantially lower | tumor growth inhibition (TGI) (CT26 cells; 20 mg/kg i.p. daily, after 3 days of dosing): 89.2% | tumor growth inhibition (TGI) (CT26 cells; 20 mg/kg i.p. daily, after 12 days of dosing): 70.0% | active β-catenin expression in tumors (CT26 cells; 20 mg/kg, 14 days): capable of suppressing active β-catenin expression in tumors | CD4+ T cell counts in blood (CT26 cells; [2]): increase | CD8+ T cell counts in blood (CT26 cells; [2]): increase | regulatory T cells in CD4+ T cell populations in tumor (CT26 cells; 20 mg/kg, end of study): significantly reduced | drug-related toxicity ([1]; animals chronically dosed): no particular drug-related toxicity was observed | average tumor growth inhibition rate ([1]; multiple animal models, administered for 3-6 weeks): 70-80%
